For the assay, the system named is male Wistar rats. As to the kind of experiment: Telemetry EEG study of NREM sleep (sleep latency and quality) in freely moving male Wistar rats. Format: in vivo. The settings on record: for sleep latency / NREM sleep during the second hour following treatment / NREM sleep within the first hour following treatment: zolpidem. As to the method: Telemetric EEG, activity and temperature monitors were surgically implanted sub-coetaneously onto the lower backs of male Wistar rats, under ketamie and xyalsine (75/10 mg/kg, i.p.) anaesthesia. A skin incision was made above the scull and the transmitter tunnelled subcutaneously from the neck to the lower back with blunted scissors. The EEG leads were placed into two 0.5 mm holes that were drilled stererotaxically 2 mm anterior to Lambda and 1 mm to the left and right of centre, so that contact was made with the durra, and fixed with quick drying glue and reinforced with dental cement. The incision was then closed with 4-0 silk suture and post operative temgesic applied for pain relief. Following a 4 week recovery and acclimatization period in individually housed ventilated cages (12 hour light/12 hour dark cycle 20-25° C.), the rats were orally treated with either test compounds, positive controls or vehicle 45-30 min prior commencement of their light cycle (sleeping period). A Latin square dosing regiment was used where each rat received each of the drugs tested in random order with 4 days clearance time between each dosing. EEG waveforms were analysed using a power spectral analysis of each 5 second epoch and scored manually into % duration of NREM sleep for each hour over a 12 hour period. […] Data were analysed using Two-way ANOVA versus vehicle treatment (*p<0.05, n=7).

Where [1] appears, read: p.o., zopiclone 5 mg/kg, Compound Mixture 50 mg/kg, compared to vehicle.
Setting [2] is: p.o., zopiclone 5 mg/kg, Compound Mixture 50 mg/kg, versus vehicle.

Turning to `Cc1ccc(-c2nc3ccc(C)cn3c2CC(=O)N(C)C)cc1` [zolpidem], where the note is “5 mg/kg p.o., compared to vehicle”, the “NREM sleep during the remainder of the sleep period” value was “failed to significantly improve NREM sleep”. Under setting [1], the sleep latency result is “significantly reduce sleep latency”. Further, under setting [2], the “NREM sleep during the second hour following treatment” value is “not significantly different from vehicle treatment” and the “NREM sleep within the first hour following treatment” value is listed as “significantly increased”.

On to `CN1CCN(C(=O)OC2c3nccnc3C(=O)N2c2ccc(Cl)cn2)CC1` (stereo not drawn) [zopiclone], for which the “sleep quality during the 6th hour of sleep” value (5 mg/kg p.o., versus vehicle) was “negative effect on sleep quality”. Besides, under setting [1], the sleep latency entry was “significantly reduce sleep latency”. Moreover, under setting [2], the “NREM sleep during the second hour following treatment” value is “not significantly different from vehicle treatment”, the “NREM sleep within the first hour following treatment” value is “significantly increased” and the “NREM sleep duration during the 8th hour” value is “significantly improved”.

For the origin of these results see patent publication US7935714B2, “Compositions for sleeping disorders” (Bright Future Pharmaceutical Laboratories, priority 2004, dated 2011).
